Assay [1] relates to HDAC in cells. Description: Cellular HDAC inhibition (cellular histone hyperacetylation / cytotoxicity assays; Table 1 only says Cellular IC50). The note with it: transformed cell lines (e.g. HeLa, A549, MCF-7); cell line not given. Type of assay: cell-based. As to the method:
2) Cellular Histone Hyperacetylation Assays:
These two secondary assays evaluate a compound's ability to inhibit HDAC in cells by measuring cellular histone acetylation levels. The cytoblot facilitates quantitative EC50 information for cellular HDAC inhibition. Transformed cell lines (e.g. HeLa, A549, MCF-7) are cultured under standard media and culture conditions prior to plating.
Cells (approx. 2,500/well) are allowed to adhere 10-24 hours to wells of a 384-well Greiner PS assay plate in media containing 1-5% serum. Cells are treated with appropriate compound and specific concentrations for 0 to 24 hours. Cells are washed once with PBS (60 μL) and then fixed (95% ethanol, 5% acetic acid or 2% PFA) for 1 minute at RT (30 μL). Cells are blocked with 1% BSA for 1 hour and washed and stained with antibody (e.g. anti-Acetylated Histone H3, Upstate Biotechnology), followed by washing and incubation with an appropriate secondary antibody conjugated to HRP or fluorophore. For luminescence assays, signal is generated using Luminol substrate (Santa Cruz Biotechnology) and detected using an Aquest plate reader (Molecular Devices).
3) Differential Cytotoxicity Assay:
HDAC inhibitors display differential cytotoxicity toward certain transformed cell lines. Cells are cultured according to standard ATCC recommended conditions that are appropriate to each cell type. Compounds were tested for their ability to kill different cell types (normal and transformed) using the ATPlite luminescence ATP detection assay system (Perkin Elmer). Assays are run in either 384-well or 1536-well Greiner PS plates. Cells (30 μL or 5 μL, respectively) are dispensed using either multichannel pipette for 384-well plates, or proprietary Kalypsys bulk liquid dispenser for 1536-well plates. Compounds added using proprietary pin-transfer device (500 nL or 5 nL) and incubated 5 to 30 hours prior to analysis. Luminescence is measured using Aquest plate reader (Molecular Devices).

In assay [2] the test system is HDAC. Description: In vitro HDAC-inhibition assay (Fluor de Lys fluorescent activity assay). The assay is classed as biochemical. The note with it: HDAC enzyme source (e.g. nuclear extract or immunopurified HDAC complexes), Fluor de Lys substrate, 30 minutes RT. As to the method: 1) In vitro HDAC-inhibition Assay:
This assay measures a compound's ability to inhibit acetyl-lysine deacetylation in vitro and was used as both a primary screening method as well as for IC50 determinations of confirmed inhibitors. The assay is performed in vitro using an HDAC enzyme source (e.g. partially purified nuclear extract or immunopurified HDAC complexes) and a proprietary fluorescent substrate/developer system (HDAC Quantizyme Fluor de Lys Fluorescent Activity Assay, BIOMOL). The assay is run in 1,536-well Greiner white-bottom plates using the following volumes and order of addition: • Step 1: Enzyme (2.5 μL) source added to plate (from refrigerated container) • Step 2: Compounds (50 nL) added with pin transfer device • Step 3: Fluor de Lys (2.5 μL) substrate added, incubate at RT, 30 minutes • Step 4: Developer (5 μL) solution is added (containing TSA), to stop reaction • Step 5: Plate Reader—data collection
The deacetylated fluorophore is excited with 360 nm light and the emitted light (460 nm) is detected on an automated fluorometric plate reader (Aquest, Molecular Devices).

For the compound `CC(=O)SCC(=O)c1ccc(NS(=O)(=O)c2ccc(OCCCN3CCCCC3)cc2)cc1` [Example 22, Thioacetic acid S-(2-oxo-2-{4-[4-(3-piperidin-1-yl-propoxy)-benzenesulfonylamino]-phenyl}-ethyl) ester], the half-maximal inhibitory concentration (IC50) in assay [1] and in assay [2] was ≤ 1 µM each time.

`CC(=O)SCC(=O)c1ccc(NS(=O)(=O)c2ccc(OCc3cccnc3)cc2)nc1` [Example 27, Thioacetic acid S-(2-oxo-2-{6-[4-(pyridin-3-ylmethoxy)-benzenesulfonylamino]-pyridin-3-yl}-ethyl) ester]: the concentration for half-maximal inhibition (IC50) in assay [1] and in assay [2] was ≤ 1 µM in each case.

With `CC(=O)SCC(=O)c1ccc(NS(=O)(=O)c2ccc(Oc3ccc(Cl)cc3)cc2)cc1` [Example 04, Thioacetic acid S-(2-{4-[4-(4-chloro-phenoxy)-benzenesulfonylamino]-phenyl}-2-oxo-ethyl) ester], the IC50 in assay [1] and in assay [2] was ≤ 1 µM throughout.

For the compound `CC(=O)SCC(=O)c1ccc(NS(=O)(=O)c2ccc(NCc3ccccn3)cc2)cc1` [Example 08, Thioacetic acid S-[2-oxo-2-(4-{4-[(pyridin-2-ylmethyl)-amino]-benzenesulfonylamino}-phenyl)-ethyl] ester], the IC50 in assay [1] and in assay [2] was ≤ 1 µM throughout.

With `CC(=O)SCC(=O)c1ccc(NS(=O)(=O)c2ccc(OCCCN3CCCC3)cc2)nc1` [Example 33, Thioacetic acid S-(2-oxo-2-{6-[4-(3-pyrrolidin-1-yl-propoxy)-benzenesulfonylamino]-pyridin-3-yl}-ethyl) ester], the IC50 in assay [1] and in assay [2] was ≤ 1 µM each time.

Turning to `CC(=O)SCC(=O)c1ccc(NS(=O)(=O)c2ccc(OCCCCc3ccccc3)cc2)cc1` [Example 13, Thioacetic acid S-(2-oxo-2-{4-[4-(4-phenyl-butoxy)-benzenesulfonylamino]-phenyl}-ethyl) ester], the IC50 in assay [1] and in assay [2] was ≤ 1 µM each time.

Take `CC(=O)SCC(=O)c1ccc(NS(=O)(=O)c2ccc(OC(C)CN3CCCCC3)cc2)nc1` (stereo not drawn) [Example 32, Thioacetic acid S-(2-{6-[4-(1-methyl-2-piperidin-1-yl-ethoxy)-benzenesulfonylamino]-pyridin-3-yl}-2-oxo-ethyl) ester]: the half-inhibitory concentration (IC50) in assay [1] and in assay [2] was ≤ 1 µM throughout.

With `CC(=O)SCC(=O)c1ccc(NS(=O)(=O)c2ccc(OCCCc3ccccn3)cc2)nc1` [Example 28, Thioacetic acid S-(2-oxo-2-{6-[4-(3-pyridin-2-yl-propoxy)-benzenesulfonylamino]-pyridin-3-yl}-ethyl) ester], the half-inhibitory concentration (IC50) in assay [1] and in assay [2] was ≤ 1 µM each time.

Take `CC(=O)SCC(=O)c1ccc(NS(=O)(=O)c2ccc(OCc3ccccn3)cc2)nc1` [Example 23, Thioacetic acid S-(2-oxo-2-{6-[4-(pyridin-2-ylmethoxy)-benzenesulfonylamino]-pyridin-3-yl}-ethyl) ester]: the IC50 in assay [1] and in assay [2] was ≤ 1 µM throughout.

In the case of `CC(=O)SCC(=O)c1ccc(NS(=O)(=O)c2ccc(Oc3ccccc3C)cc2)cc1` [Example 01, Thioacetic acid S-{2-oxo-2-[4-(4-o-tolyloxy-benzenesulfonylamino)-phenyl]-ethyl} ester], the IC50 in assay [1] and in assay [2] was ≤ 1 µM in each case.

As to `CC(=O)SCC(=O)c1ccc(NS(=O)(=O)c2ccc(Oc3ccccc3)cc2)cc1` [Example 03, Thioacetic acid S-{2-oxo-2-[4-(4-phenoxy-benzenesulfonylamino)-phenyl]-ethyl} ester], the 50% inhibitory concentration (IC50) in assay [1] and in assay [2] was ≤ 1 µM in each case.

Take `CC(=O)SCC(=O)c1ccc(NS(=O)(=O)c2ccc(OCc3ccccn3)cc2)cc1` [Example 15, Thioacetic acid S-(2-oxo-2-{4-[4-(pyridin-2-ylmethoxy)-benzenesulfonylamino]-phenyl}-ethyl) ester]: the IC50 in assay [1] and in assay [2] was ≤ 1 µM in each case.

For the compound `CC(=O)SCC(=O)c1ccc(NS(=O)(=O)c2ccc(OCCN3CCCCC3)cc2)nc1` [Example 24, Thioacetic acid S-(2-oxo-2-{6-[4-(2-piperidin-1-yl-ethoxy)-benzenesulfonylamino]-pyridin-3-yl}-ethyl) ester], the half-maximal inhibitory concentration (IC50) in assay [1] and in assay [2] was ≤ 1 µM throughout.

Turning to `CC(=O)SCC(=O)c1ccc(NS(=O)(=O)c2ccc(OCCc3ccccn3)cc2)nc1` [Example 18, Thioacetic acid S-(2-oxo-2-{6-[4-(2-pyridin-2-yl-ethoxy)-benzenesulfonylamino]-pyridin-3-yl}-ethyl) ester], the IC50 in assay [1] and in assay [2] was ≤ 1 µM each time.

`CC(=O)SCC(=O)c1ccc(NS(=O)(=O)c2ccc(OCCCN3CCOCC3)cc2)cc1` [Example 12, Thioacetic acid S-(2-{4-[4-(3-morpholin-4-yl-propoxy)-benzenesulfonylamino]-phenyl}-2-oxo-ethyl) ester]: the half-maximal inhibitory concentration (IC50) in assay [1] and in assay [2] was ≤ 1 µM in each case.

In the case of `CC(=O)SCC(=O)c1ccc(NS(=O)(=O)c2ccc(OCCCc3cccnc3)cc2)cc1` [Example 16, Thioacetic acid S-(2-oxo-2-{4-[4-(3-pyridin-3-yl-propoxy)-benzenesulfonylamino]-phenyl}-ethyl) ester], the IC50 in assay [1] is > 1 µM; in assay [2] it was ≤ 1 µM.

For the compound `CC(=O)SCC(=O)c1ccc(NS(=O)(=O)c2ccc(OC3CCN(C)CC3)cc2)cc1` [Example 10, Thioacetic acid S-(2-{4-[4-(1-methyl-piperidin-4-yloxy)-benzenesulfonylamino]-phenyl}-2-oxo-ethyl) ester], the IC50 in assay [1] and in assay [2] was ≤ 1 µM in each case.

Regarding `CC(=O)SCC(=O)c1ccc(NS(=O)(=O)c2ccc(OCC3CCCN(C)C3)cc2)nc1` (stereo not drawn) [Example 31, Thioacetic acid S-(2-{6-[4-(1-methyl-piperidin-3-ylmethoxy)-benzenesulfonylamino]-pyridin-3-yl}-2-oxo-ethyl) ester], the IC50 in assay [1] and in assay [2] was ≤ 1 µM throughout.

Consider `CC(=O)SCC(=O)c1ccc(NS(=O)(=O)c2ccc(OC3CCN(C)CC3)cc2)nc1` [Example 29, Thioacetic acid S-(2-{6-[4-(1-methyl-piperidin-4-yloxy)-benzenesulfonylamino]-pyridin-3-yl}-2-oxo-ethyl) ester], for which the IC50 in assay [1] and in assay [2] was ≤ 1 µM throughout.

Take `CC(=O)SCC(=O)c1ccc(NS(=O)(=O)c2ccc(OCCN3CCCC3)cc2)nc1` [Example 26, Thioacetic acid S-(2-oxo-2-{6-[4-(2-pyrrolidin-1-yl-ethoxy)-benzenesulfonylamino]-pyridin-3-yl}-ethyl) ester]: the half-inhibitory concentration (IC50) in assay [1] and in assay [2] was ≤ 1 µM each time.

Turning to `CC(=O)SCC(=O)c1ccc(NS(=O)(=O)c2ccc(OCCN3CCCCC3)cc2)cc1` [Example 19, Thioacetic acid S-(2-oxo-2-{4-[4-(2-piperidin-1-yl-ethoxy)-benzenesulfonylamino]-phenyl}-ethyl) ester], the IC50 in assay [1] and in assay [2] was ≤ 1 µM throughout.

Turning to `CC(=O)SCC(=O)c1ccc(NS(=O)(=O)c2ccc(OCCCN3CCCCC3)cc2)nc1` [Example 25, Thioacetic acid S-(2-oxo-2-{6-[4-(3-piperidin-1-yl-propoxy)-benzenesulfonylamino]-pyridin-3-yl}-ethyl) ester], the concentration for half-maximal inhibition (IC50) in assay [1] and in assay [2] was ≤ 1 µM throughout.

Turning to `CC(=O)SCC(=O)c1ccc(NS(=O)(=O)c2ccc(OCCCc3ccccn3)cc2)cc1` [Example 17, Thioacetic acid S-(2-oxo-2-{4-[4-(3-pyridin-2-yl-propoxy)-benzenesulfonylamino]-phenyl}-ethyl) ester], the IC50 in assay [1] and in assay [2] was ≤ 1 µM throughout.

For `CC(=O)SCC(=O)c1ccc(NS(=O)(=O)c2ccc(S(=O)(=O)N3CCOCC3)cc2)cc1` [Example 05, Thioacetic acid S-(2-{4-[4-(morpholine-4-sulfonyl)-benzenesulfonylamino]-phenyl}-2-oxo-ethyl) ester], the half-inhibitory concentration (IC50) in assay [1] and in assay [2] was ≤ 1 µM in each case.

For the origin of these results see patent publication US20070135431A1, “INHIBITORS OF HISTONE DEACETYLASE FOR THE TREATMENT OF DISEASE” (KALYPSYS, INC, priority 2005, published 2007).
